Results as given in publication PMC11758220, “Identification of a Privileged Scaffold for Inhibition of Sterol Transport Proteins through the Synthesis and Ring Distortion of Diverse, Pseudo-Natural Products” (ACS Central Science, 2025).

Assay: Stability test of spirooxepinoindole in DMSO and FP assay buffer (LC-LRMS)
Type: physicochemical
Experimental: Stability test of spirooxepinoindole
The stability of the spirooxepinoindoles in dimethyl sulfoxide and in the assay buffer was tested to be […]
A sample in the FP assay buffer was prepared from the dimethyl sulfoxide stock solution of compound 15b. The dimethyl sulfoxide stock solution was prepared 2021.12.10, and the sample in the assay buffer was prepared 2022.09.28. The samples were monitored by LC-LRMS over time to look for degradation. Both acidic and basic LC-LRMS runs were used since acidic conditions could catalys e the re-condensation of potential hydrolysed spirooxepinoindoles.
Sample: Compound 15b in FP assay buffer: 20 mM HEPES, 300 mM NaCl, 0.01 %v/v Tween -20, 0.5 %v/v glycerol, 2 mM DTT. Concentration: 1.7 mM.
Figure S6: LC-LRMS trace of the stability test of spirooxepinoindole 15b in FP assay buffer measured using the acidic run. (a) UV chromatogram after zero hours, (b) UV chromatogram after four hours, (c) UV chromatogram after 20 hours, (d) MS spectrum.
LC-LRMS (ESI+) m/z: 332.0 found for [M+H]+ for 15b, 332.1 calcd. For C17H19BrNO+. […]
Figure S7: LC-LRMS trace of the stability test of spirooxepinoindole 15b in FP assay buffer measured using the basic run. (a) UV chromatogram after zero hours, (b) UV chromatogram after four hours, (c) UV chromatogram […]
for 20 hours showing no sign of degradation (Figure S6 and Figure S7). […]

C[C@]12CC[C@@H]3C[C@H]1CC[C@@]21C(=Nc2ccc(Br)cc21)O3 (racemic) [Compound 15b]
Stability in FP assay buffer (no sign of degradation) (20 mM HEPES, 300 mM NaCl, 0.01 %v/v Tween-20, 0.5 %v/v glycerol, 2 mM DTT, 1.7 mM): 20 h
Stability in dimethyl sulfoxide (no sign of degradation) (DMSO stock solution): several months
